Measurements: US12252481B2, “Anti-viral compounds” (Aligos Therapeutics, Inc., priority 2021, dated 2025)
pEC50, pIC50: −log10 of the molar value.

How the values were obtained:
SARS-Cov-2 3CLpro = target: T1, SARS-Cov-2 3CLpro (Severe acute respiratory syndrome coronavirus 2, UniProt P0DTD1); experiment: biochemical; details: 3CLpro, 30 mins preincubation, SAMDI-MS; read-out: SARS-Cov-2 IC50 (class)
T1 construct: 3CLpro and HRV3C was added using a Multidrop Combi

HRV3C = target: T2, HRV3C (Human rhinovirus 14, UniProt P03303); experiment: biochemical; parameters: species or system HRV; details: HRV3C, 30 mins preincubation, SAMDI-MS; read-out: HRV IC50 (bound)
T2 construct: 3CLpro and HRV3C was added using a Multidrop Combi
T2 sequence (P03303 1538-1719): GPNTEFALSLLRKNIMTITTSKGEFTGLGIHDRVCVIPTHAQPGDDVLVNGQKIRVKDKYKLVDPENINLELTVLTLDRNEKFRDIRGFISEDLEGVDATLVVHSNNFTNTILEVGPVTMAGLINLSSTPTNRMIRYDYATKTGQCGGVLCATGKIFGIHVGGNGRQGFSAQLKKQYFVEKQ

[1] = tested on: B.1.1.7 lineage SARS-CoV-2; experiment: microbe, parasite or virus in culture; type: cell-based; details: Severe acute respiratory syndrome coronavirus 2, 96 h; read-out: A549-dual_ACE2_TMPRSS2 (EC50)
[2] = tested on: human beta-coronavirus OC43; experiment: OC43 coronavirus antiviral assay in HeLa cells (cytopathic effect, cell-titer-glo); type: cell-based; details: Betacoronavirus 1, OC43, HeLa, 144 h, 6 days at 33° C., read-out: EC50 (class)

| Compound | pIC50 (SARS-Cov-2 3CLpro) | pIC50 (HRV3C) | pEC50 [1] | pEC50 [2] |
| --- | --- | --- | --- | --- |
| CC(C)(C)[C@H](NC(=O)C(F)(F)F)C(=O)N1C[C@H]2[C@@H]([C@H]1C(=O)N[C@H](C#N)C[C@@H]1CCNC1=O)[C@H]1C=C[C@@H]2C1O (mixture of isomers) [Example 90, (1R,2R,3S,6S,7S)—N-[(1S)-1-cyano-2-[(3S)-2-oxopyrrolidin-3-yl]ethyl]-4-[(2S)-3,3-dimethyl-2-(2,2,2-trifluoroacetamido)butanoyl]-10-hydroxy-4-azatricyclo[5.2.1.0^{2,6}]dec-8-ene-3-carboxamide] | 6.70 to 7.70 | < 5.00 | 5.00 to 6.00 |  |
| C[C@@H](OC1CC1)[C@H](NC(=O)C(F)(F)C(F)(F)F)C(=O)N1C[C@H]2[C@@H]([C@H]1C(=O)N[C@H](C#N)C[C@@H]1CCNC1=O)[C@H]1C=C[C@@H]2C1 [Compound 101, (1S,3aR,4S,7R,7aS)-N-((S)-1-cyano-2-((S)-2-oxopyrrolidin-3-yl)ethyl)-2-(O-cyclopropyl-N-(2,2,3,3,3-pentafluoropropanoyl)-L-threonyl)-2,3,3a,4,7,7a-hexahydro-1H-4,7-methanoisoindole-1-carboxamide] | > 7.70 | < 6.30 | > 7.00 | > 7.00 |
| CC(C)([C@H](NC(=O)C(F)(F)F)C(=O)N1C[C@H]2[C@@H]([C@H]1C(=O)N[C@H](C#N)C[C@@H]1CCNC1=O)[C@H]1C=C[C@@H]2C1)C(F)(F)F [Compound 102a, (1S,3aR,4S,7R,7aS)-N-((S)-1-cyano-2-((S)-2-oxopyrrolidin-3-yl)ethyl)-2-((S)-4,4,4-trifluoro-3,3-dimethyl-2-(2,2,2-trifluoroacetamido)butanoyl)-2,3,3a,4,7,7a-hexahydro-1H-4,7-methanoisoindole-1-carboxamide] | > 7.70 | < 6.30 | > 7.00 | > 7.00 |
| CC(C)(OCC1CC1)[C@H](NC(=O)C(F)(F)C(F)(F)F)C(=O)N1C[C@H]2[C@@H]([C@H]1C(=O)N[C@H](C#N)C[C@@H]1CCNC1=O)[C@H]1C=C[C@@H]2C1 [Compound 103] | > 7.70 | < 6.30 | > 7.00 | > 7.00 |
| CC(C)(C)[C@H](NC(=O)C(F)(F)F)C(=O)N1C[C@@H]2[C@@H]3CC[C@@H](C3)[C@@H]2[C@H]1C(=O)N[C@H](C#N)CC1CC2(CC(F)(F)C2)NC1=O (stereo partly drawn) [Compound 104, (1S,2S,3S,6R,7R)—N-[(1S)-1-cyano-2-{2,2-difluoro-6-oxo-5-azaspiro[3.4]octan-7-yl}ethyl]-4-[(2S)-3,3-dimethyl-2-(2,2,2-trifluoroacetamido)butanoyl]-4-azatricyclo[5.2.1.0^{2,6}]decane-3-carboxamide] | > 7.70 | < 6.30 | > 7.00 | 6.00 to 7.00 |
| CC1(C)NC(=O)[C@H](C[C@@H](C#N)NC(=O)[C@@H]2[C@@H]3[C@H](CN2C(=O)[C@@H](NC(=O)C(F)(F)F)C(C)(C)C)[C@@H]2C=C[C@H]3C2)O1 [Compound 105, (1S,3aR,4S,7R,7aS)-N-((S)-1-cyano-2-((S)-2,2-dimethyl-4-oxooxazolidin-5-yl)ethyl)-2-((S)-3,3-dimethyl-2-(2,2,2-trifluoroacetamido)butanoyl)-2,3,3a,4,7,7a-hexahydro-1H-4,7-methanoisoindole-1-carboxamide] | 6.70 to 7.70 | < 6.30 | > 7.00 | 6.00 to 7.00 |
| CC(C)(C)[C@H](NC(=O)C(F)(F)C(F)(F)F)C(=O)N1C[C@H]2[C@@H]([C@H]1C(=O)N[C@H](C#N)CC1CC3(COC3)NC1=O)[C@H]1C=C[C@@H]2C1 (stereo partly drawn) [Compound 107, (1R,2S,3S,6R,7S)—N-[(1S)-1-cyano-2-{6-oxo-2-oxa-5-azaspiro[3.4]octan-7-yl}ethyl]-4-[(2S)-3,3-dimethyl-2-(2,2,3,3,3-pentafluoropropanamido)butanoyl]-4-azatricyclo[5.2.1.0^{2,6}]dec-8-ene-3-carboxamide] | > 7.70 | < 6.30 | > 7.00 | > 7.00 |
| CC(C)(C)[C@H](NC(=O)C(F)(F)F)C(=O)N1C[C@H]2[C@@H]([C@H]1C(=O)N[C@H](C#N)CC1C[C@H](C(F)(F)F)NC1=O)[C@H]1C=C[C@@H]2C1 (stereo partly drawn) [Compound 108, (1R,2S,3S,6R,7S)—N-[(1S)-1-cyano-2-[(5R)-2-oxo-5-(trifluoromethyl)pyrrolidin-3-yl]ethyl]-4-[(2S)-3,3-dimethyl-2-(2,2,2-trifluoroacetamido)butanoyl]-4-azatricyclo[5.2.1.0^{2,6}]dec-8-ene-3-carboxamide] | > 7.70 | < 6.30 | > 7.00 | > 7.00 |
| CC(C)(C)[C@H](NC(=O)CC(F)(F)F)C(=O)N1C[C@H]2[C@@H]([C@H]1C(=O)N[C@H](C#N)C[C@@H]1Oc3ccncc3NC1=O)[C@H]1C=C[C@@H]2C1 [Compound 110, (1S,3aR,4S,7R,7aS)-N-((S)-1-cyano-2-((S)-3-oxo-3,4-dihydro-2H-pyrido[4,3-b][1,4]oxazin-2-yl)ethyl)-2-((S)-3,3-dimethyl-2-(3,3,3-trifluoropropanamido)butanoyl)-2,3,3a,4,7,7a-hexahydro-1H-4,7-methanoisoindole-1-carboxamide] | > 7.70 | < 6.30 | > 7.00 | > 7.00 |
| CC(C)(C)[C@H](NC(=O)C(F)(F)F)C(=O)N1C[C@H]2[C@@H]([C@H]1C(=O)N[C@H](C#N)C[C@@H]1Oc3ccncc3NC1=O)[C@H]1C=C[C@@H]2C1(F)F [Compound 111] | > 7.70 | < 6.30 | 6.00 to 7.00 | > 7.00 |
| CC(C)(C)[C@H](NC(=O)C(F)(F)F)C(=O)N1C[C@H]2[C@@H]([C@H]1C(=O)N[C@H](C#N)C[C@@H]1Oc3cccnc3NC1=O)[C@H]1C=C[C@@H]2C1 [Compound 112, (1S,3aR,4S,7R,7aS)-N-((S)-1-cyano-2-((S)-3-oxo-3,4-dihydro-2H-pyrido[3,2-b][1,4]oxazin-2-yl)ethyl)-2-((S)-3,3-dimethyl-2-(2,2,2-trifluoroacetamido)butanoyl)-2,3,3a,4,7,7a-hexahydro-1H-4,7-methanoisoindole-1-carboxamide] | > 7.70 | < 6.30 | > 7.00 | 6.00 to 7.00 |
| CC(C)(C)[C@H](NC(=O)C(F)(F)F)C(=O)N1C[C@H]2[C@@H]([C@H]1C(=O)N[C@H](C#N)C[C@@H]1Oc3cnccc3NC1=O)[C@H]1C=C[C@@H]2C1 [Compound 113] | > 7.70 | < 6.30 | > 7.00 | > 7.00 |
| CC(C)(C)[C@H](NC(=O)C(F)(F)C(F)(F)F)C(=O)N1C[C@H]2[C@@H]([C@H]1C(=O)N[C@H](C#N)C[C@@H]1OCCNC1=O)[C@H]1C=C[C@@H]2C1 [Compound 115, (1S,3aR,4S,7R,7aS)-N-((S)-1-cyano-2-((S)-3-oxomorpholin-2-yl)ethyl)-2-((S)-3,3-dimethyl-2-(2,2,3,3,3 pentafluoropropanamido)butanoyl)-2,3,3a,4,7,7a-hexahydro-1H-4,7-methanoisoindole-1-carboxamide] | > 7.70 | < 6.30 | > 7.00 | > 7.00 |
| CC(C)(C)[C@H](NC(=O)C(F)(F)Cl)C(=O)N1C[C@H]2[C@@H]([C@H]1C(=O)N[C@H](C#N)C[C@@H]1OCCNC1=O)[C@H]1C=C[C@@H]2C1 [Compound 116] | > 7.70 | < 6.30 | > 7.00 | > 7.00 |
| CC(C)(C)[C@H](NC(=O)C(F)(F)F)C(=O)N1C[C@H]2[C@@H]([C@H]1C(=O)N[C@H](C#N)C[C@@H]1OCCNC1=O)[C@H]1C=C[C@@H]2C1(F)F [Compound 117] | > 7.70 | < 6.30 | > 7.00 | > 7.00 |
| CC(C)(C)[C@H](NC(=O)C(F)(F)C(F)(F)F)C(=O)N1C[C@@H]2[C@H]3C[C@@H]([C@@H]2[C@H]1C(=O)N[C@H](C#N)C[C@@H]1OCCNC1=O)[C@H](F)C3 [Compound 118, (1S,2R,3S,6R,7S,9R)—N-[(1S)-1-cyano-2-[(2S)-3-oxomorpholin-2-yl]ethyl]-4-[(2S)-3,3-dimethyl-2-(2,2,3,3,3-pentafluoropropanamido)butanoyl]-9-fluoro-4-azatricyclo[5.2.1.0^{2,6}]decane-3-carboxamide] | > 7.70 | < 6.30 | > 7.00 | > 7.00 |
| CC(C)(C)[C@H](NC(=O)C(F)(F)F)C(=O)N1C[C@@H]2[C@H]3C[C@H](C[C@@H]3F)[C@@H]2[C@H]1C(=O)N[C@H](C#N)C[C@@H]1OCCNC1=O [Compound 119] | 6.70 to 7.70 | < 6.30 | 6.00 to 7.00 | 6.00 to 7.00 |
| CC(C)(C)[C@H](NC(=O)C(F)(F)F)C(=O)N1C[C@H]2[C@@H]([C@H]1C(=O)N[C@H](C#N)C[C@@H]1OCC3(CC3)NC1=O)[C@H]1C=C[C@@H]2C1 [Compound 120] | > 7.70 | < 6.30 | > 7.00 | > 7.00 |
| CC(C)(C)[C@H](NC(=O)C(F)(F)F)C(=O)N1C[C@H]2[C@@H]([C@H]1C(=O)N[C@H](C#N)C[C@@H]1OCCCNC1=O)[C@H]1C=C[C@@H]2C1 [Compound 121, (1R,2S,3S,6R,7S)—N-[(1S)-1-cyano-2-[(2S)-3-oxo-1,4-oxazepan-2-yl]ethyl]-4-[(2S)-3,3-dimethyl-2-(2,2,2-trifluoroacetamido)butanoyl]-4-azatricyclo[5.2.1.0^{2,6}]dec-8-ene-3-carboxamide] | > 7.70 | < 6.30 | > 7.00 | > 7.00 |
| [2H]C([2H])([2H])C([C@H](NC(=O)C(F)(F)F)C(=O)N1C[C@H]2[C@@H]([C@H]1C(=O)N[C@H](C#N)C[C@@H]1CCNC1=O)[C@H]1C=C[C@@H]2C1)(C([2H])([2H])[2H])C([2H])([2H])[2H] [Compound 124] | > 7.70 | < 6.30 |  |  |
